Data: patent publication EP1566447A1, “Glimepiride- and insulin-induced glycosylphosphatidylinositol-specific phospholipase C regulation” (priority 2004, dated 2005)

System: GPI-PLC of hcDIGs from rat adipocytes
Test: adipocyte GPI-PLC assay (cleavage of AChE, TX-114 partitioning)
Assay type: biochemical
Experimental: Biophys. […] Each reaction mixture was subjected to TX-114 partitioning (see below).
After incubation for 1 h on ice, the mixture was layered onto a cushion of 0.4 ml of 0.25 M sucrose and 25 mM Tris/HCl (pH 7.4) on ice.
Cleavage rate was calculated from the amount of hydrophilic AChE and aP activity recovered with the TX-114-depleted phase upon TX-114 partitioning.

## CCCCCCCCCCCCP1(=O)O[C@@H]2[C@H](O)[C@@H](O)[C@H](O)[C@@H](O)[C@@H]2O1 (mixture of isomers) [GPI-2350, myo-inositol-1,2-cyclo-dodecylphosphonic acid]
1 mM, hcDIGs from rat adipocytes
  inhibition % at 1 mM: 95 ± 11%
hcDIGs from rat adipocytes, inhibitor 0.05 µM - 1 mM
  IC50: 200 to 500 nM
hcDIGs treated with 50 µM, reisolated, extensively washed, assayed without inhibitor, data not shown
  lipolytic cleavage toward AChE after pretreatment and washing: only low lipolytic cleavage
